ChEMBL document CHEMBL1201862, “PubChem BioAssay data set” (2004)
Active and inactive are the calls of the source. Cut-off read from the data, not from the text of the source: actives have a measured IC50 and inactives only a lower limit.

Molecular target: Envelope glycoprotein gp160 (Human immunodeficiency virus 1, UniProt Q6QLK5)
Test: cell-free HIV fusion peptide-binding blockers – biochemical, uHTS, fluorescence dequenching, […] (AID 1986)

Sequence of Envelope glycoprotein gp160 (Q6QLK5 whole entry, the tested form may be a part): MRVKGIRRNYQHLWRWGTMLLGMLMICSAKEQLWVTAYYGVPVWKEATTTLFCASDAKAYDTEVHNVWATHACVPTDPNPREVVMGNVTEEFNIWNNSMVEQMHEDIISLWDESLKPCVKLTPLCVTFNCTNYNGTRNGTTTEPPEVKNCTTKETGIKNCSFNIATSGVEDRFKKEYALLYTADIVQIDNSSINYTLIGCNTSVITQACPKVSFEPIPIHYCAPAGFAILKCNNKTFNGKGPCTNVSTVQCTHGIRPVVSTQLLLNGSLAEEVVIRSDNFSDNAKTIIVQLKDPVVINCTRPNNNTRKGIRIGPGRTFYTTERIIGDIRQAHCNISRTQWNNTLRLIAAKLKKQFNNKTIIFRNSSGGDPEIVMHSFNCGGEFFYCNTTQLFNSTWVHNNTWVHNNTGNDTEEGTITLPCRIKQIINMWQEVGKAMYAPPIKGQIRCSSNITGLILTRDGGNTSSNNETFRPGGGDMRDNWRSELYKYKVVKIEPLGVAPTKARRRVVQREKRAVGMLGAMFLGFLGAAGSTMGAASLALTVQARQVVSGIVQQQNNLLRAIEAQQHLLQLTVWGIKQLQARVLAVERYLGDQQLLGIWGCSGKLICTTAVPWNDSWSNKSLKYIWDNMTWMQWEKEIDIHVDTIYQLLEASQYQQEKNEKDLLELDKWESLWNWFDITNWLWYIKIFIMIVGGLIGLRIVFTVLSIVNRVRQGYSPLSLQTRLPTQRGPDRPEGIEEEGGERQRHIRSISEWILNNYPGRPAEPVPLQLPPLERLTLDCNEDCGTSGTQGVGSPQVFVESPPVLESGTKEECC

Question: With Cc1ccccc1C(=O)Nc1cccc(C(=O)N/N=C/c2cc(Cl)cc([N+](=O)[O-])c2O)c1 as the compound, how does the IC50 read?
Answer: 31.3 µM (active)
